Key:
[1] = biological target: Cyclin-dependent kinase-like 2 (Homo sapiens) (UniProt Q92772); details: Compound concentration 1000.0 nM
[2] = biological target: GABA-A receptor; anion channel (Rattus norvegicus) (UniProt O09028+P15431+P18506+P18508+P19969+P20236+P23574+P23576+P28471+P28473+P30191+P62813+P63079+P63138+Q91ZM7+Q9ES14); details: Compound concentration 10.0 uM
[3] = biological target: Aurora kinase C (Homo sapiens) (UniProt Q9UQB9); details: Compound concentration 1000.0 nM
[4] = biological target: Cyclin-dependent kinase 17 (Homo sapiens) (UniProt Q00537); details: Compound concentration 1000.0 nM
[5] = test system: Phosphatidylinositol 4,5-bisphosphate 3-kinase catalytic subunit alpha isoform (Homo sapiens), P42336 [M1043I]; details: Compound concentration 1000.0 nM
[6] = biological target: Serine/threonine-protein kinase TAO1 (Homo sapiens) (UniProt Q7L7X3); details: Compound concentration 1000.0 nM
[7] = test system: Tyrosine-protein kinase ABL1 (Homo sapiens), P00519 [F317L]; details: Compound concentration 1000.0 nM
[8] = biological target: Tyrosine-protein kinase CSK (Homo sapiens) (UniProt P41240); details: Compound concentration 1000.0 nM
[9] = biological target: Mitogen-activated protein kinase kinase kinase kinase 4 (Homo sapiens) (UniProt O95819); details: Compound concentration 1000.0 nM
[10] = biological target: Serine/threonine-protein kinase tousled-like 2 (Homo sapiens) (UniProt Q86UE8); details: Compound concentration 1000.0 nM
[11] = biological target: Fibroblast growth factor receptor 2 (Homo sapiens) (UniProt P21802); details: Compound concentration 1000.0 nM
[12] = biological target: Calcium/calmodulin-dependent protein kinase type II subunit beta (Homo sapiens) (UniProt Q13554); details: Compound concentration 1000.0 nM
[13] = biological target: Calcium/calmodulin-dependent protein kinase type 1D (Homo sapiens) (UniProt Q8IU85); details: Compound concentration 1000.0 nM
[14] = biological target: Homeodomain-interacting protein kinase 1 (Homo sapiens) (UniProt Q86Z02); details: Compound concentration 1000.0 nM
[15] = biological target: Death-associated protein kinase 3 (Homo sapiens) (UniProt O43293); details: Compound concentration 1000.0 nM
[16] = biological target: Tyrosine-protein kinase Fyn (Homo sapiens) (UniProt P06241); details: Compound concentration 1000.0 nM
[17] = biological target: Receptor-type tyrosine-protein kinase FLT3 (Homo sapiens) (UniProt P36888); details: Compound concentration 1000.0 nM
[18] = biological target: Bone morphogenetic protein receptor type-1A (Homo sapiens) (UniProt P36894); details: Compound concentration 1000.0 nM
[19] = biological target: Serine/threonine-protein kinase Nek4 (Homo sapiens) (UniProt P51957); details: Compound concentration 1000.0 nM
[20] = biological target: Calcium/calmodulin-dependent protein kinase type II subunit alpha (Homo sapiens) (UniProt Q9UQM7); details: Compound concentration 1000.0 nM
[21] = test system: Epidermal growth factor receptor (Homo sapiens), P00533 [UNDEFINED MUTATION]; details: Compound concentration 1000.0 nM
[22] = biological target: Phosphatidylinositol 4,5-bisphosphate 3-kinase catalytic subunit alpha isoform (Homo sapiens) (UniProt P42336); details: Compound concentration 1000.0 nM
[23] = biological target: Mitogen-activated protein kinase 13 (Homo sapiens) (UniProt O15264); details: Compound concentration 1000.0 nM
[24] = biological target: Serine/threonine-protein kinase RIO2 (Homo sapiens) (UniProt Q9BVS4); details: Compound concentration 1000.0 nM
[25] = biological target: Cyclin-dependent kinase 19 (Homo sapiens) (UniProt Q9BWU1); details: Compound concentration 1000.0 nM
[26] = biological target: MAP kinase-interacting serine/threonine-protein kinase 1 (Homo sapiens) (UniProt Q9BUB5); details: Compound concentration 1000.0 nM
[27] = biological target: SRSF protein kinase 1 (Homo sapiens) (UniProt Q96SB4); details: Compound concentration 1000.0 nM
[28] = biological target: Mitogen-activated protein kinase kinase kinase 14 (Homo sapiens) (UniProt Q99558); details: Compound concentration 1000.0 nM
[29] = biological target: Tyrosine-protein kinase JAK1 (Homo sapiens) (UniProt P23458); details: Compound concentration 1000.0 nM
[30] = biological target: Dual specificity tyrosine-phosphorylation-regulated kinase 1B (Homo sapiens) (UniProt Q9Y463); details: Compound concentration 1000.0 nM
[31] = biological target: Serine/threonine-protein kinase SIK3 (Homo sapiens) (UniProt Q9Y2K2); details: Compound concentration 1000.0 nM
[32] = biological target: Mitogen-activated protein kinase kinase kinase 19 (Homo sapiens) (UniProt Q56UN5); details: Compound concentration 1000.0 nM
[33] = biological target: Serine/threonine-protein kinase N2 (Homo sapiens) (UniProt Q16513); details: Compound concentration 1000.0 nM
[34] = biological target: NT-3 growth factor receptor (Homo sapiens) (UniProt Q16288); details: Compound concentration 1000.0 nM
[35] = biological target: 1-phosphatidylinositol 3-phosphate 5-kinase (Homo sapiens) (UniProt Q9Y2I7); details: Compound concentration 1000.0 nM
[36] = biological target: Cyclin-dependent kinase 13 (Homo sapiens) (UniProt Q14004); details: Compound concentration 1000.0 nM
[37] = biological target: Serine/threonine-protein kinase 10 (Homo sapiens) (UniProt O94804); details: Compound concentration 1000.0 nM
[38] = biological target: Serine/threonine-protein kinase Chk2 (Homo sapiens) (UniProt O96017); details: Compound concentration 1000.0 nM
[39] = biological target: Alpha-2A adrenergic receptor (Homo sapiens) (UniProt P08913); details: Compound concentration 10.0 uM
[40] = test system: Tyrosine-protein kinase ABL1 (Homo sapiens), P00519 [Q252H]; details: Compound concentration 1000.0 nM
[41] = test system: Tyrosine-protein kinase ABL1 (Homo sapiens), P00519 [H396P]; details: Compound concentration 1000.0 nM
[42] = biological target: Ribosomal protein S6 kinase alpha-3 (Homo sapiens) (UniProt P51812); details: Compound concentration 1000.0 nM
[43] = biological target: NUAK family SNF1-like kinase 1 (Homo sapiens) (UniProt O60285); details: Compound concentration 1000.0 nM

Calcium/calmodulin-dependent protein kinase type II subunit alpha (Homo sapiens), sequence (Q9UQM7 whole entry): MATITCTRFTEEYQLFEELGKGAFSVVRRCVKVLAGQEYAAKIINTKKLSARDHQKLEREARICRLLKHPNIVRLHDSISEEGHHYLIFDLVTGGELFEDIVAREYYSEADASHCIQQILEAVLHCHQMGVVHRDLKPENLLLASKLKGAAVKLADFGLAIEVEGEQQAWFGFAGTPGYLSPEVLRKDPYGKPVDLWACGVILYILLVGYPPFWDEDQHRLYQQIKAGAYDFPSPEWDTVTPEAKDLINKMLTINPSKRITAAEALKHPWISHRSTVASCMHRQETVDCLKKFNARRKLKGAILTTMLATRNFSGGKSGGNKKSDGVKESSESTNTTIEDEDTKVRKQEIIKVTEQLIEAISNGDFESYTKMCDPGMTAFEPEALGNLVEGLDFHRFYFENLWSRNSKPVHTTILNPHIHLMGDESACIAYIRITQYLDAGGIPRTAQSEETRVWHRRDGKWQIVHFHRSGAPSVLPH
Mitogen-activated protein kinase kinase kinase 19 (Homo sapiens), sequence (Q56UN5 whole entry): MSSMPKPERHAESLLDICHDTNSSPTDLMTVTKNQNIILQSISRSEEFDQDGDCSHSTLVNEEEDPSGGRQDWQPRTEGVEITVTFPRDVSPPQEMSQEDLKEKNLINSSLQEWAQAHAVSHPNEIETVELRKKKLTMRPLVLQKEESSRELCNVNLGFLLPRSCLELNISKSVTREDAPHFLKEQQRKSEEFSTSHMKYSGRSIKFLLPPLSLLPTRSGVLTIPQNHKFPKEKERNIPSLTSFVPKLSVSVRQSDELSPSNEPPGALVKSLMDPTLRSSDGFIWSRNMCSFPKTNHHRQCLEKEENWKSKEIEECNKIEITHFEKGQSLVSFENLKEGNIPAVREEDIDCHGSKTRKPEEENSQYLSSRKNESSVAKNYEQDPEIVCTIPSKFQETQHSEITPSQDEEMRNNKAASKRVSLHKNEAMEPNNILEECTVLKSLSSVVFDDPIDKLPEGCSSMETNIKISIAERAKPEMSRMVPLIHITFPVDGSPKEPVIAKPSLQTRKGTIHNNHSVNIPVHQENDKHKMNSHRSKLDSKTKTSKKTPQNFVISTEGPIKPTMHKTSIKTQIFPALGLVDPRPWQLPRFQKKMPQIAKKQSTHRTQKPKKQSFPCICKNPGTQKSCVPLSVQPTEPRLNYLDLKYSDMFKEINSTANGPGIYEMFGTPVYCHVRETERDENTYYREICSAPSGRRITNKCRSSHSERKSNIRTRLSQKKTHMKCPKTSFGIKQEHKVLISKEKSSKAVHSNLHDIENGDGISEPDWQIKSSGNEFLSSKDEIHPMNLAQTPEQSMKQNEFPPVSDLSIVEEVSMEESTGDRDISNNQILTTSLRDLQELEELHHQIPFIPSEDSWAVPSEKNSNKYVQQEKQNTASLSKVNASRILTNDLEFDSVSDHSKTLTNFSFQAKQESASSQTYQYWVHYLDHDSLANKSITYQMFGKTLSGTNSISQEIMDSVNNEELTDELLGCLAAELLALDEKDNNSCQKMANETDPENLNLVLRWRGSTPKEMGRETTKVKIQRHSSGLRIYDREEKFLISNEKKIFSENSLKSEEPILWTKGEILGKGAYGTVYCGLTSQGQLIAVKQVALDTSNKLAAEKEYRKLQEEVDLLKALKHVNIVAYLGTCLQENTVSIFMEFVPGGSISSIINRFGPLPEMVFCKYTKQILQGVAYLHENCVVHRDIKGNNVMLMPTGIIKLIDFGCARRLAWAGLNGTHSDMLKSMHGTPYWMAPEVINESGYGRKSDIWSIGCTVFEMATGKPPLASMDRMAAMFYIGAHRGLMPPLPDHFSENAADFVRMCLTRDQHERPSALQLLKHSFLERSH
1-phosphatidylinositol 3-phosphate 5-kinase (Homo sapiens), sequence (Q9Y2I7 whole entry): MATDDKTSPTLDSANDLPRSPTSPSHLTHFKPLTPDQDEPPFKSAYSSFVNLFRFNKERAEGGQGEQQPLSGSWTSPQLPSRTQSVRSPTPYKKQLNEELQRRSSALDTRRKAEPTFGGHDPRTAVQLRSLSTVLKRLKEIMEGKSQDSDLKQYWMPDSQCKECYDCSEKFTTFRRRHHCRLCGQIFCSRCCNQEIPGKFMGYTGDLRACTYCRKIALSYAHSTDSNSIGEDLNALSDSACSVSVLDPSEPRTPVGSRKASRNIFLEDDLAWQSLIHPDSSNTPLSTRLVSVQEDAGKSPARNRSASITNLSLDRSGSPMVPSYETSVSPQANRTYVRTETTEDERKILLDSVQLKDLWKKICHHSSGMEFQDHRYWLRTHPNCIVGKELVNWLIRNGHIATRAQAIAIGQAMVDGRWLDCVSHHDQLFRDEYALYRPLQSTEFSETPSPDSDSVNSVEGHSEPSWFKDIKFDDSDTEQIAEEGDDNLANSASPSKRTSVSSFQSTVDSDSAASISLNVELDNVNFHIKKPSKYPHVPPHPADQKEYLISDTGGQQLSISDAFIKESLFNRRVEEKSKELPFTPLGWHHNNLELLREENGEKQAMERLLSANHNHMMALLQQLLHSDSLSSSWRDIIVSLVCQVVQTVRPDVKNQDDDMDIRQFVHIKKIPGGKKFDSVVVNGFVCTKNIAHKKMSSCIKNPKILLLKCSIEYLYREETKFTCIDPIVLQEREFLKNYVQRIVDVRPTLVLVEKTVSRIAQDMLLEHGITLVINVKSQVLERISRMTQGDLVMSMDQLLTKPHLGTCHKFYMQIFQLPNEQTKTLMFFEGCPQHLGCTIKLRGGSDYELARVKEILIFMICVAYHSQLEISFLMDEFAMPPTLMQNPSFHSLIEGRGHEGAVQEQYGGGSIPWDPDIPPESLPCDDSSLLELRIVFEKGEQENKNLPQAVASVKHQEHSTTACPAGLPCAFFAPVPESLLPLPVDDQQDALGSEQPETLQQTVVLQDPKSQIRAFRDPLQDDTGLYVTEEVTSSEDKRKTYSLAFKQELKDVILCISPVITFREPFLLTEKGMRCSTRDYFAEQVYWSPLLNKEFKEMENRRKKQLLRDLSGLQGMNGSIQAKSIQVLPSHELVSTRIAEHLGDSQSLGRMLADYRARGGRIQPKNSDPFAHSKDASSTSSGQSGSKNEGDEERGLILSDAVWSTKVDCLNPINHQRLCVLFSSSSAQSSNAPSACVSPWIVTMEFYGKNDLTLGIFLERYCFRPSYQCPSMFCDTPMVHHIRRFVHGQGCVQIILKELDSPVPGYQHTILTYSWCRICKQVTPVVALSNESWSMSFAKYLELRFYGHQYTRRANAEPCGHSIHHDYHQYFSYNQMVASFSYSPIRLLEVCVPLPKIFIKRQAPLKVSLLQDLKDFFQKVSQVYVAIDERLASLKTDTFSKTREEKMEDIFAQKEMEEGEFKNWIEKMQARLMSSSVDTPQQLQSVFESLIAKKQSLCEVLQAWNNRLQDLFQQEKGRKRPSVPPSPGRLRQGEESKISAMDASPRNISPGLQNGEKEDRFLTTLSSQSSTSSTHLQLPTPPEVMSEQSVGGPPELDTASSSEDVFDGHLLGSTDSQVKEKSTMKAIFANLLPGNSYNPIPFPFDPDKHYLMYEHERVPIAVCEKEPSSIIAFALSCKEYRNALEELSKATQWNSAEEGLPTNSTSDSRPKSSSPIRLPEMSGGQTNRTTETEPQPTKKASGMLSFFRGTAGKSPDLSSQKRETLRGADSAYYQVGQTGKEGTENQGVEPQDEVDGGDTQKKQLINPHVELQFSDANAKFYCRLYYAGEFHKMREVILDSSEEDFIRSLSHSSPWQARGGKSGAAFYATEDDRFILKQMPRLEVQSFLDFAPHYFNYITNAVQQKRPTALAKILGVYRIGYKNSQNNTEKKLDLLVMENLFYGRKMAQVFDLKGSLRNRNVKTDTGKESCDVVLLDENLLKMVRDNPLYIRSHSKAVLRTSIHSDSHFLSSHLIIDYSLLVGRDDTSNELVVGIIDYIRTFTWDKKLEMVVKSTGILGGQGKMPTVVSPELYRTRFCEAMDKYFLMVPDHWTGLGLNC
Homeodomain-interacting protein kinase 1 (Homo sapiens), sequence (Q86Z02 whole entry, looked up): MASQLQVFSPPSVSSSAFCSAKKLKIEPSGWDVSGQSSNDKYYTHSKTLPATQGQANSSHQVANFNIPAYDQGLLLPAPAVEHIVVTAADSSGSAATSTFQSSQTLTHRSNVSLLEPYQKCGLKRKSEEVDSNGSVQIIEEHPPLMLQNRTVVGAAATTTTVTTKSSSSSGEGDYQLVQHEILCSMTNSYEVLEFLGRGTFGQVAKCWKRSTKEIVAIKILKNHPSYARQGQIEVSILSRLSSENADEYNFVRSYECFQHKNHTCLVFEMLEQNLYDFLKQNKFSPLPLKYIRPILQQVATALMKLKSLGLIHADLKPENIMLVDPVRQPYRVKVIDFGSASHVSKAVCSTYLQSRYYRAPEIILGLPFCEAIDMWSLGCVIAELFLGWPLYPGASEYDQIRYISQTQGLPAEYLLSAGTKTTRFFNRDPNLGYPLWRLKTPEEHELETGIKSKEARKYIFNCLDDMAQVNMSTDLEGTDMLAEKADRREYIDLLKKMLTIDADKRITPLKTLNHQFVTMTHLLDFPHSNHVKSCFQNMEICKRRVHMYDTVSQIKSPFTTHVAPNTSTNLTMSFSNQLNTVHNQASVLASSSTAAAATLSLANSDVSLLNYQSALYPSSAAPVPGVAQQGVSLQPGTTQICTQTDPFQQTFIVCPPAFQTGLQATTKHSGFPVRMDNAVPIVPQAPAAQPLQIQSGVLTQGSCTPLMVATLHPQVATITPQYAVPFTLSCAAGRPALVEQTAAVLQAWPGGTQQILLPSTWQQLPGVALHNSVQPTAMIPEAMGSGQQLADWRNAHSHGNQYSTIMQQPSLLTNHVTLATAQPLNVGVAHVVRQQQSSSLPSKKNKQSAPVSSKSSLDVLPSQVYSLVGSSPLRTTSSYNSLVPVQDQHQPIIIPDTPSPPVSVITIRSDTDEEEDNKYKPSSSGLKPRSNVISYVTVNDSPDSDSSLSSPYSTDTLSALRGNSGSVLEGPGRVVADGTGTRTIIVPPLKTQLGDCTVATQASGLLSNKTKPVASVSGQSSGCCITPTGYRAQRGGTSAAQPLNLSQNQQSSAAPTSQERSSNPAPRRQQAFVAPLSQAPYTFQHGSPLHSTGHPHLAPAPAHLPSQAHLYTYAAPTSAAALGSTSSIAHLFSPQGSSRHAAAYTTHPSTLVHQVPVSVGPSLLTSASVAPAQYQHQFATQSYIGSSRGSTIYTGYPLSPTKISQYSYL

Compound: Cc1nc(N2CC[C@@H](O)C2)ncc1-c1cc(C(F)(F)F)cc2[nH]ncc12 [TP-004]
- residual activity [1]: 100%
- inhibition [2]: 16.2%
- residual activity [3]: 100%
- residual activity [4]: 91%
- residual activity [5]: 100%
- residual activity [6]: 91%
- residual activity [7]: 58%
- residual activity [8]: 100%
- residual activity [9]: 82%
- residual activity [10]: 100%
- residual activity [11]: 100%
- residual activity [12]: 100%
- residual activity [13]: 100%
- residual activity [14]: 74%
- residual activity [15]: 100%
- residual activity [16]: 100%
- residual activity [17]: 87%
- residual activity [18]: 100%
- residual activity [19]: 81%
- residual activity [20]: 100%
- residual activity [21]: 99%
- residual activity [22]: 100%
- residual activity [23]: 100%
- residual activity [24]: 100%
- residual activity [25]: 100%
- residual activity [26]: 61%
- residual activity [27]: 100%
- residual activity [28]: 68%
- residual activity [29]: 78%
- residual activity [30]: 96%
- residual activity [31]: 53%
- residual activity [32]: 67%
- residual activity [33]: 72%
- residual activity [34]: 66%
- residual activity [35]: 88%
- residual activity [36]: 90%
- residual activity [37]: 100%
- residual activity [38]: 96%
- inhibition [39]: 10.6%
- residual activity [40]: 79%
- residual activity [41]: 61%
- residual activity [42]: 48%
- residual activity [43]: 83%

— ChEMBL document CHEMBL4507303, “Data for DCP probe TP-004” (2021)
